According to PMC7984390 (Journal of Clinical Pharmacology, 2020):
Where “and” joins values, the source holds several entries; their conditions need not be identical. Identical values can stand only once. Entries after “also recorded” stand apart in the source; their conditions may differ.

Legend:
[1] = Phase 1 study: iohexol plasma clearance as marker of GFR; type: in vivo, human; conditions: for Iohexol C0, arithmetic mean (CV%) / Iohexol CLsyst, arithmetic mean (CV%): iohexol iv
[2] = Phase 1 study: endogenous markers of renal function; type: in vivo, human
Phase 1 study: safety = type: in vivo, human; conditions: by treatment period; healthy subjects
[3] = cited from earlier work
[4] = treatment metformin + tucatinib, n = 17
[5] = combination treatment versus metformin alone
[6] = metformin alone or with tucatinib, n = 17
[7] = urine 0-24 h, metformin 850 mg oral, alone or with tucatinib, n = 17

CC(=O)N(CC(O)CO)c1c(I)c(C(=O)NCC(O)CO)c(I)c(C(=O)NCC(O)CO)c1I (stereo not drawn) [Iohexol]
Iohexol C0, arithmetic mean (CV%) [1, 4]: 178.5 (21.5) µg/mL
Iohexol CLsyst, arithmetic mean (CV%) [1, 4]: 129.0 (22.0) mL/min
Iohexol C0, arithmetic mean (CV%) ([1]; treatment metformin, n = 17): 175.6 (18.0) µg/mL
Iohexol CLsyst, arithmetic mean (CV%) ([1]; treatment metformin, n = 17): 129.8 (22.7) mL/min

Cc1cc(Nc2ncnc3ccc(NC4=NC(C)(C)CO4)cc23)ccc1Oc1ccn2ncnc2c1 [Tucatinib]
Effect of tucatinib on GFR (iohexol clearance) ([1]; tucatinib 300 mg twice daily): unchanged; also recorded: unaffected
Effect of tucatinib on cystatin C-based eGFR ([2]; tucatinib 300 mg twice daily): unchanged
Proportion of subjects who experienced TEAEs (Phase 1 study: safety): 33.3%
Patients with adverse event of elevated serum creatinine concentration ([3]; tucatinib arm (with trastuzumab and capecitabine), HER2CLIMB): 13.9%
Patients with increased creatinine as a laboratory abnormality ([3]; tucatinib arm, all grade 1 or 2): 33%
Effect of tucatinib on metformin Cmax (tucatinib 300 mg twice daily coadministered with metformin 850 mg): no effect

CN(C)C(=N)N=C(N)N [Metformin]
GFR, arithmetic mean (CV%) ([1]; calculated from iohexol plasma clearance, n = 17): 94.99 (17.4) mL/min/1.73 m^2
Mean eGFR derived from cystatin C, 12 hours postdose [2, 5]: 97.9 mL/min/1.73 m^2
Mean eGFR derived from cystatin C, premetformin dose [2, 5]: 101.4 mL/min/1.73 m^2
Mean CrCl 24 hours postdose ([2]; day 2 (after metformin alone) versus day 9 (in the presence of tucatinib)): 152.3 mL/min
Mean cystatin C concentration prior to metformin dosing ([2]; metformin alone (day 1) versus tucatinib coadministration (day 8)): 0.846 mg/L
Mean cystatin C concentration 12 hours postmetformin dosing ([2]; metformin alone versus metformin and tucatinib): 0.881 mg/L
Proportion of subjects who experienced TEAEs (Phase 1 study: safety): 38.9%
Tmax (human, plasma, oral, 850 mg): 1.5 to 4 h
Cmax (human, plasma, po, 850 mg): 1300 ng/mL
Metformin CLrenal, arithmetic mean (CV%) (metformin 850 mg oral, alone or with tucatinib 300 mg twice daily, n = 17): 30.0 (27.0) L/h
Metformin CL/F, geometric LSM [6]: 102.0 L/h
Metformin VzF, geometric LSM [6]: 664.7 L
Ae0‐24, amount of metformin excreted unchanged in urine, arithmetic mean (CV%) [7]: 242.6 (26.5) mg
Fe0‐24, cumulative fraction of metformin excreted unchanged in urine, arithmetic mean (CV%) [7]: 28.54% and 28.5 (26.5) %
